Laboratory results reported in US8541380B2, “C-aryl glucoside SGLT2 inhibitors and pharmaceutical compositions comprising same” (Green Cross Corporation, priority 2009, dated 2013).

Molecular target: human SGLT2 (Homo sapiens (Human), UniProt P31639)
Assay: hSGLT2 inhibitory activity, sodium-dependent 14C-AMG glucose transport assay in CHO cells expressing hSGLT2
Assay type: cell-based
Conditions: 14C-AMG uptake, CHO cells expressing hSGLT2, 37° C. for 2 h
From the text: Human SGLT2 (hSGLT2) gene was amplified by PCR from cDNA-Human Adult Normal Tissue Kidney (Invitrogen, Carlsbad, Calif.). The hSGLT2 sequence was cloned into pcDNA3.1(+) for mammalian expression and were stably transfected into Chinese hamster ovary (CHO) cells. SGLT2-expressing clones were selected based on resistance to G418 antibiotic (Geneticin®, Invitrogen, Carlsbad, Calif.) and activity in the ^14C-α-methyl-D-glucopyranoside (^14C-AMG) uptake assay.
For sodium-dependent glucose transport assay, cells expressing hSGLT2 were seeded into a 96-well culture plate at a density of 5×10^4 cells/well in RPMI medium 1640 containing 10% fetal bovine serum. The cells were used 1 day after plating. They were incubated in pretreatment buffer (10 mM HEPES, 5 mM Tris, 140 mM choline chloride, 2 mM KCl, 1 mM CaCl2, and 1 mM MgCl2, pH 7.4) at 37° C. for 10 min. They were then incubated in uptake buffer (10 mM HEPES, 5 mM Tris, 140 mM NaCl, 2 mM KCl, 1 mM CaCl2, 1 mM MgCl2, and 1 mM ^14C-nonlabeled AMG pH 7.4) containing ^14C-labeled (8 uM) and inhibitor or dimethyl sulfoxide (DMSO) vehicle at 37° C. for 2 h. Cells were washed twice with washing buffer (pretreatment buffer containing 10 mM AMG at room temperature) and then the radioactivity was measured using a liquid scintillation counter.

human SGLT2, sequence (P31639 whole entry): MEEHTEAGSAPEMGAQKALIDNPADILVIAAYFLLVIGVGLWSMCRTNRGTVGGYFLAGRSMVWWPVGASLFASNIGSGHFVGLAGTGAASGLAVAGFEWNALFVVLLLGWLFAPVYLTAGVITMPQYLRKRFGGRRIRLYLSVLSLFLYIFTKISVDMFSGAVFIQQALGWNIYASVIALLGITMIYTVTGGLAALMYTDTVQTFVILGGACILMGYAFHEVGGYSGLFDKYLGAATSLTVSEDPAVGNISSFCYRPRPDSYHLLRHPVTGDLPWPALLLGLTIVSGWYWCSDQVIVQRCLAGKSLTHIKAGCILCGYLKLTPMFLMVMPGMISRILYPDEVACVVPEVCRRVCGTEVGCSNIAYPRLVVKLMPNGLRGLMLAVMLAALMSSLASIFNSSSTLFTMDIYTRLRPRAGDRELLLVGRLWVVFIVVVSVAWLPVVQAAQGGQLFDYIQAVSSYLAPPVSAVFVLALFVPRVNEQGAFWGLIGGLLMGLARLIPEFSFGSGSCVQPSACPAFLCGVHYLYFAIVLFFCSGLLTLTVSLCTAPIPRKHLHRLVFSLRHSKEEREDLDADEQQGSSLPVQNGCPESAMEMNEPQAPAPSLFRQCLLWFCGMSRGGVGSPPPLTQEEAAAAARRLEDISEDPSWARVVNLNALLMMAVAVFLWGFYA

| IC50 [nM] | Structure (SMILES) |
| --- | --- |
| 111 | OC[C@H]1O[C@@H](c2ccc(Cl)c(Cc3ccc(OC4CCCCC4)nn3)c2)[C@H](O)[C@@H](O)[C@@H]1O [Example 59, (2S,3R,4R,5S,6R)-2-(4-Chloro-3-((6-(cyclohexyloxy)pyridazin-3-yl)methyl)phenyl)-6-(hydroxymethyl)-tetrahydro-2H-pyran-3,4,5-triol] |
| 61.3 | OC[C@H]1O[C@@H](c2ccc(Cl)c(Cc3ccc(-c4ccoc4)nn3)c2)[C@H](O)[C@@H](O)[C@@H]1O [Example 63, (2S,3R,4R,5S,6R)-2-(4-Chloro-3-((6-(furan-3-yl)pyridazin-3-yl)methyl)phenyl)-6-(hydroxymethyl)-tetrahydro-2H-pyran-3,4,5-triol] |
| 82.7 | OC[C@H]1O[C@@H](c2ccc(Cl)c(Cc3ccc(-c4ccc5c(c4)OCO5)nn3)c2)[C@H](O)[C@@H](O)[C@@H]1O [Example 67, (2S,3R,4R,5S,6R)-2-(3-((6-(Benzo[d][1,3]dioxol-5-yl)pyridazin-3-yl)methyl)-4-chlorophenyl)-6-(hydroxymethyl)-tetrahydro-2H-pyran-3,4,5-triol] |
| 293 | Cc1ccc(Cc2cc([C@@H]3O[C@H](CO)[C@@H](O)[C@H](O)[C@H]3O)ccc2Cl)nn1 [Example 73, (2S,3R,4R,5S,6R)-2-(4-Chloro-3-((6-methylpyridazin-3-yl)methyl)phenyl)-6-(hydroxymethyl)-tetrahydro-2H-pyran-3,4,5-triol] |
| 237 | CCCc1ccc(Cc2cc([C@@H]3O[C@H](CO)[C@@H](O)[C@H](O)[C@H]3O)ccc2Cl)nn1 [Example 74, (2S,3R,4R,5S,6R)-2-(4-Chloro-3-((6-propylpyridazin-3-yl)methyl)phenyl)-6-(hydroxymethyl)-tetrahydro-2H-pyran-3,4,5-triol] |
| 811 | CC(C)Cc1ccc(Cc2cc([C@@H]3O[C@H](CO)[C@@H](O)[C@H](O)[C@H]3O)ccc2Cl)nn1 [Example 77, (2S,3R,4R,5S,6R)-2-(4-Chloro-3-((6-isobutylpyridazin-3-yl)methyl)phenyl)-6-(hydroxymethyl)-tetrahydro-2H-pyran-3,4,5-triol] |
| 71.3 | CCSc1ccc(Cc2cc([C@@H]3O[C@H](CO)[C@@H](O)[C@H](O)[C@H]3O)ccc2Cl)nn1 [Example 80, (2S,3R,4R,5S,6R)-2-(4-Chloro-3-((6-(ethylthio)pyridazin-3-yl)methyl)phenyl)-6-(hydroxymethyl)-tetrahydro-2H-pyran-3,4,5-triol] |
| 1520 | CSc1nnc(Cc2cc([C@@H]3O[C@H](CO)[C@@H](O)[C@H](O)[C@H]3O)ccc2Cl)cc1C [Example 82, (2S,3R,4R,5S,6R)-2-(4-Chloro-3-((5-methyl-6-(methylthio)pyridazin-3-yl)methyl)phenyl)-6-(hydroxymethyl)tetrahydro-2H-pyran-3,4,5-triol] |
| 618 | Cc1cc(Cc2cc([C@@H]3O[C@H](CO)[C@@H](O)[C@H](O)[C@H]3O)ccc2Cl)n[nH]c1=O [Example 83, 6-(2-Chloro-5-((2S,3R,4R,5S,6R)-3,4,5-trihydroxy-6-(hydroxymethyl)-tetrahydro-2H-pyran-2-yl)benzyl)-4-methylpyridazin-3(2H)-one] |
| 700 | OC[C@H]1O[C@@H](c2ccc(Cl)c(Cc3ccc(N4CCOCC4)nn3)c2)[C@H](O)[C@@H](O)[C@@H]1O [Example 84, (2S,3R,4R,5S,6R)-2-(4-Chloro-3-((6-morpholinopyridazin-3-yl)methyl)phenyl)-6-(hydroxymethyl)-tetrahydro-2H-pyran-3,4,5-triol] |
| 532 | Cc1ccc2nc(Cc3cc([C@@H]4O[C@H](CO)[C@@H](O)[C@H](O)[C@H]4O)ccc3Cl)nnc2c1 [Example 87, (2S,3R,4R,5S,6R)-2-(4-Chloro-3-((7-methylbenzo[e][1,2,4]triazin-3-yl)methyl)phenyl)-6-(hydroxymethyl)tetrahydro-2H-pyran-3,4,5-triol] |
